From patent publication US11944623B2, “Modulators of Kv3 channels to treat pain” (Autifony Therapeutics Limited, priority 2015, dated 2024)

Experiments:
[1] = biological target: T1, Human Nav1.7 channels (Homo sapiens, UniProt Q15858); assay: Nav1.7 QPatch assay; format: cell-based; details: 10 µM concentration (N=3)
T1 construct: expressed in transfected cells
Procedure: Human Nav1.7 channels were stably expressed in a HEK293 cell line. Electrophysiological recordings were made at room temperature using an automated patch clamp platform (QPatch, Sophion Biosciences).
The QPatch assay was carried out at room temperature using the QPatch platform (Sophion). On the day of the experiment cells were cultured according to standard cell preparation for QPatch. Internal and external physiological solutions were freshly prepared prior to the assay. The standard extracellular solution contained 145 mM NaCl, 4 mM KCl, 2 mM CaCl2, 2 mM MgCl2, 10 mM HEPES and 10 mM glucose; the pH was adjusted to 7.4 with NaOH, and the osmolarity measured as 314mOsm/L. The standard intracellular solution contained 140 mM CsF, 10 mM NaCl, 5 mM CsOH, 1 mM EGTA, 10 mM HEPES; the pH was adjusted to 7.25 with CsOH, and the osmolarity measured as 293mOsm/L.
A series of 40 voltage pulses (from −120 mV to 0 mV, 2.4 ms long at 117 Hz) were applied every 60 s in control (twice), compound (five times), standard blocker (twice) and washout (twice). The % inhibition values were calculated by normalising the data relative to the 1st pulse (P1) and by calculating the ratio between the 40th pulse versus the 1st pulse (P40/1). Series resistance and quality of seals were monitored during the experiments. Sophion QPatch Assay Software 5.0 was used to analyse and plot all the graphs. 10 μM of the test compound was applied followed by 1 μM TTX (standard blocker), followed by saline (washout). Compounds were diluted in physiological solutions at the required concentration with a maximum of 0.1% of DMSO.

[2] = biological target: T2, Human Kv3.4 channels (Homo sapiens, UniProt Q03721); assay: Kv3.4 Assay 2 (QPatch, HEK293); format: cell-based; set-up: dose or concentration left out as unconfirmed; details: for reduction in peak Kv3.4 current: peak currents did not recover to baseline on washout
T2 construct: expressed in transfected cells
T2 sequence (Q03721 1-635): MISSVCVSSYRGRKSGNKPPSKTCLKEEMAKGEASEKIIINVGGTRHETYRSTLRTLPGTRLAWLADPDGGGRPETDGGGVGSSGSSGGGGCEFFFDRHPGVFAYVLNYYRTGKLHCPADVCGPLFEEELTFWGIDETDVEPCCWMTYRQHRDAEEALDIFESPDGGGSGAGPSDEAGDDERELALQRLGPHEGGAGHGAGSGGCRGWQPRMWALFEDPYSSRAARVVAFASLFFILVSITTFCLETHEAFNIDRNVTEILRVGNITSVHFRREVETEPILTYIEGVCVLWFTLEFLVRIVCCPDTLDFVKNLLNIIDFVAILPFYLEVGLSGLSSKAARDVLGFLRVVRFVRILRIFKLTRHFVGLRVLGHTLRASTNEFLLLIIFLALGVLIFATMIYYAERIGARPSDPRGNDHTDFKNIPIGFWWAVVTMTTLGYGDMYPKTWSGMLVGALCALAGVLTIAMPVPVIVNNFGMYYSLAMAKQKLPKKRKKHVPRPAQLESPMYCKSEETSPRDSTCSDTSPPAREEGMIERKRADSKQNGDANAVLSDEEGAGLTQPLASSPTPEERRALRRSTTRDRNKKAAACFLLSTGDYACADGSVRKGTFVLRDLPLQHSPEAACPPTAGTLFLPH
Procedure: Human Kv3.4 channels were stably expressed in a HEK293 cell line. Cells were used within 1-4 hours of cell preparation and internal and external physiological solutions were freshly prepared prior to the assay. Electrophysiological recordings were made using an automated patch clamp platform (QPatch, Sophion Biosciences). The extracellular solution contained 145 mM NaCl, 4 mM KCl, 2 mM CaCl2, 1 mM MgCl2, 10 mM HEPES and 10 mM glucose; the pH was adjusted to 7.4 with NaOH, and the osmolarity measured as 313 mOsm/L. A low potassium intracellular solution was used which contained 135.6 mM CsCl, 5.37 mM CaCl2, 1.75 mM MgCl2, 10 mM EGTA, 15.6 mM KOH, 4 mM Na2ATP and 10 mM HEPES; the pH was adjusted to 7.2 with CsOH, and the osmolarity measured as 303 mOsm/L.
The voltage dependence of inactivation of the homomeric hKv3.4 channels was tested using a protocol that consisted of a series of two square voltage pulses. The pulse one (P1=pre-pulse) was 1000 ms long and was immediately followed by a second pulse (P2=test pulse) which was 500 ms long. Pulse one varied between the holding potential of −60 mV to +40 mV and pulse two stepped from a holding potential of −60 to +40 mV before returning to the holding potential of −60 mV.
Steady-state voltage-activation and -inactivation curves were fitted with single Boltzmann function in which G/Gmax was obtained from normalized current amplitude and the V50 represent the half-activation or inactivation voltage.
The time constants of the inactivation phase of the hKv3.4 currents were derived from a mono (τ) or a double (τ1 and τ2) standard exponential fit to peak trace pulse from −80 mV to +60 mV.
The time-course of effect of the compounds against the hKv3.4 potassium channel was measured with repetitive voltage pulses from a holding potential of −60 mV, with pulses of 500 ms duration every 5 s to +40 mV.
One concentration (10 uM) of the test compounds was assessed during the activation, inactivation and peak pulse protocols. The protocol was applied with addition of physiological solution (control period), followed by 10 uM of the testing compound and a 10 mM of the standard blocker TEA.
Data were normalized using the baseline current control values as top of the curve (maximum current; 1.0) and the zero potassium current as the bottom of the curve (minimum current; 0.0).
Series resistance and quality of seals were monitored during the experiments. Analysis was performed using the Sophion QPatch Assay Software (version 5.2).
Stock solutions (10 mM) of the standard blockers TEA was prepared in fresh physiological solution prior to testing on the e-phys automated platform. The test compounds were prepared in 10 mM DMSO stock and then diluted 1 in 1000 in physiological solution.

T1 sequence (Q15858 whole entry): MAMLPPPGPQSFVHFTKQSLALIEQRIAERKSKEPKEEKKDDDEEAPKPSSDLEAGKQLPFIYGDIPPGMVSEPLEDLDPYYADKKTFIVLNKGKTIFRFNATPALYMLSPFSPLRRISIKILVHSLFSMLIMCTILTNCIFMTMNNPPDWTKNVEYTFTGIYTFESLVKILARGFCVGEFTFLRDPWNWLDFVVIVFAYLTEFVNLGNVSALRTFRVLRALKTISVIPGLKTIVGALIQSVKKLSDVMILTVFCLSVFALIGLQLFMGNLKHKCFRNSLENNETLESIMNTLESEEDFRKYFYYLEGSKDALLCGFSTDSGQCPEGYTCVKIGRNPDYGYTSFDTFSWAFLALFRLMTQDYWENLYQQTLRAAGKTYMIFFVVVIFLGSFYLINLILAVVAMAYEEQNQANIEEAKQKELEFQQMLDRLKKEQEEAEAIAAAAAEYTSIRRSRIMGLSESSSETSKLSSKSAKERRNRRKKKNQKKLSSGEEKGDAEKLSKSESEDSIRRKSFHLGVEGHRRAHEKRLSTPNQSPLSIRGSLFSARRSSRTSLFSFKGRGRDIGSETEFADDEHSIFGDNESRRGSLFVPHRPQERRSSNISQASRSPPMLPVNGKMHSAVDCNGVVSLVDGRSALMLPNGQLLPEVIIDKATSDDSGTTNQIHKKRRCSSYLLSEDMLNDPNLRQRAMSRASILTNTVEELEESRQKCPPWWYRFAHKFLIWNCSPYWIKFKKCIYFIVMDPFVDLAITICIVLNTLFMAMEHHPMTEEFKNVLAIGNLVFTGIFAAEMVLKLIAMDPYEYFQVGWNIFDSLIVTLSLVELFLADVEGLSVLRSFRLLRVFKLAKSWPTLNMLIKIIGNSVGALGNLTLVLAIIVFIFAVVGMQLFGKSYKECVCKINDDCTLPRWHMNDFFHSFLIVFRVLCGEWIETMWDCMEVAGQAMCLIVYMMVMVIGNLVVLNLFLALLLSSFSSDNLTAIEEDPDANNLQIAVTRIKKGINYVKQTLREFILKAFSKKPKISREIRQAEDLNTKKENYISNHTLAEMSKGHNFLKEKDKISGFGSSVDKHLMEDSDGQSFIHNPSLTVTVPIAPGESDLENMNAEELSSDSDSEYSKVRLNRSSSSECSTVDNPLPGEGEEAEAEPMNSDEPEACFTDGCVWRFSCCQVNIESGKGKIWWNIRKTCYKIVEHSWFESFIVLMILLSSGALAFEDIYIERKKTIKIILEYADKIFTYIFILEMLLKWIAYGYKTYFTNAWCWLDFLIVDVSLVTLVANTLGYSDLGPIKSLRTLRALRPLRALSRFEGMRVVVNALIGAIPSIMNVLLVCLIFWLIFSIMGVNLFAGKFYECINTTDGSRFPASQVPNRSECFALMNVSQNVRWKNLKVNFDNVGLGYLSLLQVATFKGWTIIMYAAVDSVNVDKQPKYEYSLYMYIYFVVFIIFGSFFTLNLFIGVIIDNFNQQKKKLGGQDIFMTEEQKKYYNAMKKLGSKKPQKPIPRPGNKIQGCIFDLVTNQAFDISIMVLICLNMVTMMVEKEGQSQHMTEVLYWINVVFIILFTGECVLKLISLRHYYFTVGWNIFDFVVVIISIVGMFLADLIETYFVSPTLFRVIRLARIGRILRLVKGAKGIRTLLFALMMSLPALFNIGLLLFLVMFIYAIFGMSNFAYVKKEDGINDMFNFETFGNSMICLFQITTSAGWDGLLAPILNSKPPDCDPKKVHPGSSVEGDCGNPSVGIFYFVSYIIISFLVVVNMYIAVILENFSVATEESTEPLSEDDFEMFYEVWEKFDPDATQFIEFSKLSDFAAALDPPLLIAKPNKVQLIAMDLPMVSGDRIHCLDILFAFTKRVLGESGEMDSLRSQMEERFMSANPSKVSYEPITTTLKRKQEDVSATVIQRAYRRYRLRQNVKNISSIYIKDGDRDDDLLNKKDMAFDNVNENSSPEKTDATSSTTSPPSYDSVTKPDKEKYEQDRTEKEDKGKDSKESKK

Structure (SMILES) | effect on Nav1.7-mediated currents [1] | potentiation of the observed Kv3.4 current [2] | shift in the voltage-dependence of activation of the Kv3.4 currents [2] | reduction in peak Kv3.4 current [2] [%]
Cc1ccc(Oc2ncc(N3C(=O)NC(C)(C)C3=O)cn2)c2c1OCC21CC1 [Compound 1, 5,5-dimethyl-3-[2-(7-methylspiro[2H-benzofuran-3,1′-cyclopropane]-4-yl)oxypyrimidin-5-yl]imidazolidine-2,4-dione] | No significant effect | did not potentiate | did not produce any notable shift | 40±5
CC[C@@]1(C)NC(=O)N(c2cnc(Oc3ccc(C)c(OC(F)(F)F)c3)nc2)C1=O [Compound 2, (5R)-5-ethyl-5-methyl-3-[2-({4-methyl-3-[(trifluoromethyl)oxy]phenyl}oxy)-5-pyrimidinyl]-2,4-imidazolidinedione] | No significant effect | did not potentiate | did not produce any notable shift | 45.4±4
Cc1ccc(Oc2ccc(-n3c(C)n[nH]c3=O)cn2)c2c1OCC21CC1 [Compound 3, 5-methyl-4-{6-[(7-methylspiro[1-benzofuran-3,1′-cyclopropan]-4-yl)oxy]pyridin-3-yl}-2,4-dihydro-3H-1,2,4-triazol-3-one] | No significant effect | did not potentiate | did not produce any notable shift | 36±3
CC[C@H]1NC(=O)N(c2ccc(Oc3ccc(C)c4c3C3(CC3)CO4)nc2)C1=O [Compound 4, (5R)-5-ethyl-3-[6-(7-methylspiro[2H-benzofuran-3,1′-cyclopropane]-4-yl)oxy-3-pyridyl]imidazolidine-2,4-dione] | – | did not potentiate | did not produce any notable shift | 50.0±4
